Measurements as given in patent US20100016328A1, “PTERIN ANALOGS” (BioMarin Pharmaceutical, Inc., priority 2007, published 2010).
Where a name gives a salt, the structure may show the parent alone. Read-outs that look alike come from different tables or passages of the source.

How the values were obtained:
[1] = system: human umbilical vein endothelial cells (HUVEC); test: Nitric oxide production (nitrite+nitrate, Griess reaction) in NAS-pretreated HUVEC; assay type: cell-based; details: HUVEC pretreated with 3 mM NAS; for NO production (nitrite+nitrate): 50, 100, or 200 mM compound, 5-22 hours
Protocol: Cultured human umbilical vein endothelial cells (HUVEC) were pretreated with 3 mM N-acetylserotonin (NAS), an inhibitor of the enzyme sepiapterin reductase. Inhibition of this pathway typically results in loss of endogenous BH4, depressing the endogenous eNOS activity far below normal and provides an assay to test for restoration of eNOS activity.
Thus, subconfluent HUVECs were seeded in a 24-well plate and grown overnight in EGM2 medium (full growth medium). The next morning, fresh medium was added to the cells (300 μL/well), 3 mM NAS was added to the cells to decrease the endogenous BH4 levels. After an incubation of 1.5 hours, 50, 100, or 200 mM BH4 or compound of Example 5, Example 6, Example 7, or Example 9 were added to the cells. The cells were allowed to react with the BH4 or the compound of Example 5, Example 7, or Example 9 for 5-22 hours. The production of NO was then measured as changes in total (nitrite+nitrate) by the Griess reaction subsequent to nitrate reductase treatment. The percentage of nitrite+nitrate with BH4 or compound of Example 5, Example 7, or Example 9 is shown in FIG. 7 (after 5 hours); FIG. 8 (after 17 hours); and FIG. 9 (after 22 hours). The results for Example 6 are shown in FIG. 10 (after 5 hours) and FIG. 11 (after 20 hours).

[2] = Pharmacokinetics of BH4 and BH4 analogs given by oral gavage to monkeys; assay type: in vivo; details: fasted cynomolgus monkeys; for AUC0-t / Cmax: equivalent of 80 mg of BH4, n=3, plasma over 25 hours, standard deviation in parenthesis; for Tmax: equivalent of 80 mg of BH4, n=3, standard deviation in parenthesis
Protocol: Fasted cynomolgus monkeys were given BH4 and BH4 analogs by oral gavage (n=3), such that the amount of the analog administered was the equivalent of 80 mg of BH4. The plasma concentrations of the BH4, when administered directly, or the analogs was measured at various time points over a 25 hour period. The PK data is also shown in the following table, wherein the number in parenthesis is the standard deviation.

[3] = Stability in human plasma; assay type: in vitro ADME; details: concentration of compound remaining over a 60 minute period; FIG. 3
Protocol: (§1) The stability of various compounds as disclosed herein were tested in human and rat and in simulated gastric fluid. Each compound was tested over an hour period for concentration of the compound remaining at each time point. The results are shown in FIGS. 3 (human plasma stability), 4 (rat plasma stability), and 5 (simulated gastric fluid stability) for the compounds of Example 2, 3, 4, and 20.

Stability in rat plasma = assay type: in vitro ADME; details: concentration of compound remaining over a 60 minute period; FIG. 4
Protocol: as §1

[4] = Stability in simulated gastric fluid; assay type: in vitro ADME; details: concentration of compound remaining over a 60 minute period; FIG. 5
Protocol: as §1

[5] = set-up: species or system male Sprague Dawley rats; details: male, Sprague Dawley, rat, in vivo, po
Protocol: This example allows for comparison of the pharmacokinetics of the analog (Compound I) versus that of BH4 following single oral administration in rats.
With respect to the administered BH4, the maximum total biopterin concentrations in plasma 2 hrs and 1 hr post-dosing were 108 ng/ml (i.e., about 3 fold the endogenous level) and 1227 ng/ml (i.e., about 30 fold the endogenous level), respectively. […] The ratio of reduced biopterin to total biopterins in plasma (i.e., the reduced-form ratio) was relatively static (73%-96%).

[6] = cynomolgus monkey, plasma, read-out: Tmax

| SMILES | AUC0-t [2] | Cmax [2] | Tmax [2] | also measured |
| --- | --- | --- | --- | --- |
| CCC(C)[C@H](N)C(=O)O[C@@H](C)[C@H](O)[C@H]1CNc2nc(N)[nH]c(=O)c2N1 (stereo in doubt) [Example 6, 2-Amino-3-methyl-pentanoic acid 2-(2-amino-4-oxo-3,4,5,6,7,8-hexahydro-pteridin-6-yl)-2-hydroxy-1-methyl-ethyl ester] |  |  |  | effect on NAS-treated cells compared with Example 5 [1]: similar, if slightly reduced, effect; NO production (nitrite+nitrate) [1]: increased NO production in a dose-dependent manner |
| CC(C)[C@H](N)C(=O)N1c2c(nc(N)[nH]c2=O)NC[C@@H]1[C@@H](O)[C@H](C)O (stereo in doubt) [Example 13, 2-Amino-5-(2-amino-3-methyl-butyryl)-6-(1,2-dihydroxy-propyl)-5,6,7,8-tetrahydro-1H-pteridin-4-one hydrochloride] | 13.7 ng·h/mL | 2.2 ng/mL | 6.0 h |  |
| CC[C@H](C)[C@H](N)C(=O)N1c2c(nc(N)[nH]c2=O)NC[C@@H]1[C@@H](O)[C@H](C)O (stereo in doubt) [Example 14, 2-Amino-5-(2-amino-3-methyl-pentanoyl)-6-(1,2-dihydroxy-propyl)-5,6,7,8-tetrahydro-1H-pteridin-4-one hydrochloride] | 63.2 (25.6) ng hr/mL | 5.23 (2.1) ng/mL | 12.1 (11.9) hr |  |
| C[C@H](O)[C@H](O)[C@H]1CNc2nc(N)[nH]c(=O)c2N1C(=O)[C@@H](N)CCCCN (stereo in doubt) [Example 15, 2-Amino-5-(2,6-diamino-hexanoyl)-6-(1,2-dihydroxy-propyl)-5,6,7,8-tetrahydro-1H-pteridin-4-one dihydrochloride] | 36.8 (37.6) ng hr/mL | 5.7 (1.7) ng/mL | 12.0 (10.4) hr |  |
| C[C@H](O)[C@H](O)[C@H]1CNc2nc(N)[nH]c(=O)c2N1C(=O)[C@@H]1CCCN1 (stereo in doubt) [Example 16, 2-Amino-6-(1,2-dihydroxy-propyl)-5-(pyrrolidine-2-carbonyl)-5,6,7,8-tetrahydro-1H-pteridin-4-one dihydrochloride] | 88.1 (31.5) ng hr/mL | 7.63 (2.7) ng/mL | 6.0 (0)^ hr |  |
| C[C@H](O)[C@H](O)[C@H]1CNc2nc(N)[nH]c(=O)c2N1C(=O)OCc1ccccc1 (stereo in doubt) [Example 20, 2-Amino-6-(1,2-dihydroxy-propyl)-4-oxo-4,6,7,8-tetrahydro-1H-pteridine-5-carboxylic acid benzyl ester] |  |  |  | stability in human plasma [3]: high level of stability; stability in rat plasma (Stability in rat plasma): high level of stability; stability in simulated gastric fluid [4]: high level of stability |
| C[C@H](O)[C@H](O)[C@H]1CNc2nc(N)[nH]c(=O)c2N1 [BH4, Tetrahydrobiopterin] | 288 (15.5) ng hr/mL | 42.0 (12.6) ng/mL | 3.0 (0)^ hr | ratio of reduced biopterin to total biopterins in plasma (reduced-form ratio) [5]: 73-96%; maximum total biopterin concentration relative to the endogenous level ([5]; 10 mg/kg): about 3 fold; time of maximum total biopterin concentration post-dosing ([5]; 10 mg/kg): 2 h; time of return to the endogenous level post-dosing ([5]; 10 mg/kg): 9 h; maximum total biopterin concentration relative to the endogenous level ([5]; 100 mg/kg): about 30 fold; time of maximum total biopterin concentration post-dosing ([5]; 100 mg/kg): 1 h; time of return to the endogenous level post-dosing ([5]; 100 mg/kg): 24 h |
| CC(=O)O[C@@H]([C@H](C)OC(C)=O)[C@H]1CNc2nc(N)[nH]c(=O)c2N1C(C)=O [Example 2, Acetic acid 2-acetoxy-1-(5-acetyl-2-amino-4-oxo-3,4,5,6,7,8-hexahydro-pteridin-6-yl)-propyl ester] |  |  |  | stability in human plasma [3]: high level of stability; stability in rat plasma (Stability in rat plasma): high level of stability; stability in simulated gastric fluid [4]: high level of stability |
| CCC(=O)O[C@@H]([C@H](C)OC(=O)CC)[C@H]1CNc2nc(N)[nH]c(=O)c2N1C(=O)CC [Example 3, Propionic acid 1-(2-amino-4-oxo-5-propionyl-3,4,5,6,7,8-hexahydro-pteridin-6-yl)-2-propionyloxy-propyl ester] |  |  |  | stability in human plasma [3]: high level of stability; stability in rat plasma (Stability in rat plasma): high level of stability; stability in simulated gastric fluid [4]: high level of stability |
| CCCC(=O)O[C@@H]([C@H](C)OC(=O)CCC)[C@H]1CNc2nc(N)[nH]c(=O)c2N1C(=O)CCC [Example 4, Butyric acid 1-(2-amino-5-butyryl-4-oxo-3,4,5,6,7,8-hexahydro-pteridin-6-yl)-2-butyryloxy-propyl ester] |  |  |  | stability in human plasma [3]: high level of stability; stability in rat plasma (Stability in rat plasma): high level of stability; stability in simulated gastric fluid [4]: high level of stability |
| C[C@H](OC(=O)[C@@H](N)CCCCN)[C@H](O)[C@H]1CNc2nc(N)[nH]c(=O)c2N1 [Example 7, 2,6-Diamino-hexanoic acid 2-(2-amino-4-oxo-3,4,5,6,7,8-hexahydro-pteridin-6-yl)-2-hydroxy-1-methyl-ethyl ester tri-hydrochloride] | 572 (148) ng hr/mL | 82.3 (27.2) ng/mL |  | Tmax [2, 6]: 2.67 h; effect on NAS-treated cells compared with Example 5 [1]: similar, if slightly reduced, effect; NO production (nitrite+nitrate) [1]: increased NO production in a dose-dependent manner |
| C[C@H](OC(=O)[C@@H]1CCCN1)[C@H](O)[C@H]1CNc2nc(N)[nH]c(=O)c2N1 [Example 9, Pyrrolidine-2-carboxylic acid 2-(2-amino-4-oxo-3,4,5,6,7,8-hexahydro-pteridin-6-yl)-2-hydroxy-1-methyl-ethyl ester dihydrochloride] | 384 (214) ng hr/mL | 61.9 (34.8) ng/mL | 2.0 (0)^ hr | effect on NAS-treated cells compared with Example 5 [1]: similar, if slightly reduced, effect; NO production (nitrite+nitrate) [1]: increased NO production in a dose-dependent manner |
| CC(C)[C@H](N)C(=O)O[C@@H]([C@H](C)OC(=O)[C@@H](N)C(C)C)[C@H]1CNc2nc(N)[nH]c(=O)c2N1 [Example 10, 2-Amino-3-methyl-butyric acid 2-(2-amino-3-methyl-butyryloxy)-1-(2-amino-4-oxo-3,4,5,6,7,8-hexahydro-pteridin-6-yl)-propyl ester trihydrochloride] | 625 (294) ng hr/mL | 138 (123) ng/mL |  | Tmax [2, 6]: 1.83 h |
| C[C@H](OC(=O)[C@@H](N)CCCCN)[C@H](OC(=O)[C@@H](N)CCCCN)[C@H]1CNc2nc(N)[nH]c(=O)c2N1 [Example 11, 2,6-Diamino-hexanoic acid 2-(2-amino-4-oxo-3,4,5,6,7,8-hexahydro-pteridin-6-yl)-2-(2,6-diamino-hexanoyloxy)-1-methyl-ethyl ester pentahydrochloride] | 617 (336) ng hr/mL | 115 (65.4) ng/mL | 1.5 (0.09) hr |  |
| C[C@H](OC(=O)[C@@H]1CCCN1)[C@H](OC(=O)[C@@H]1CCCN1)[C@H]1CNc2nc(N)[nH]c(=O)c2N1 [Example 12, Pyrrolidine-2-carboxylic acid 1-(2-amino-4-oxo-3,4,5,6,7,8-hexahydro-pteridin-6-yl)-2-(pyrrolidine-2-carbonyloxy)-propyl ester trihydrochloride] | 438 (211) ng hr/mL | 73.6 (42.9) ng/mL | 3.0 (1.0) hr |  |
